The values below come from BindingDB's records for doi:10.1016/j.bmc.2011.05.064 (Glaxosmithkline, 2011).

The target in this assay is Beta-1 adrenergic receptor (Homo sapiens, UniProt P08588). Briefly: Agonist activity at human adrenergic beta1 receptor expressed in CHO cells assessed as cAMP accumulation.
Sequence of Beta-1 adrenergic receptor (P08588 whole entry): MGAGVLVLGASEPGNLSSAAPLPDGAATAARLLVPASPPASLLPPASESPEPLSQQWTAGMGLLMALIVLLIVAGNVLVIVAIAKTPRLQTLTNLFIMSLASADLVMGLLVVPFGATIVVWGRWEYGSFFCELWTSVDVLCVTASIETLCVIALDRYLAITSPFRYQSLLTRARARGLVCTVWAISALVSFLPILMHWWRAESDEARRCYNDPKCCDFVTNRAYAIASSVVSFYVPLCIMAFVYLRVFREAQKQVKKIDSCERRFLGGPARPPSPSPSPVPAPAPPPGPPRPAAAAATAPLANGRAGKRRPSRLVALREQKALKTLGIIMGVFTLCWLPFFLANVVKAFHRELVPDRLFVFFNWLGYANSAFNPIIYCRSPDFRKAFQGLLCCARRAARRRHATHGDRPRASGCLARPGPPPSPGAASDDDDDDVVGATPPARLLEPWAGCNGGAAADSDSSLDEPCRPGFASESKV

Consider `O=c1[nH]cc(O)n1-c1ccc(CCCCOCCCCCCNC[C@H](O)c2ccc(O)c(CO)c2)cc1`, for which the concentration giving a half-maximal response (EC50) worked out at 79 nM.
